Source: patent US6749840B2, “Inhibition of pigmentation by inhibition of fatty acid synthase” (New York University, priority 2001, dated 2004)

Test system: Melan-a melanocytes
Experiment: Assay for melanin production in melan-a melanocytes (absorbance of melanin at 490 nm per protein)
Type: cell-based, mice
Details: at 3 μM; average; results of FIG. 1
Description: Melan-a melanocytes (α/α, P/P), an immortalized melanocyte line derived from C57BLI6J mice wild type at the p locus (Bennett et al. (1987), Int. J. Cancer 39:414-418), were incubated in Dulbecco's modification of Eagle's medium (DMEM: 10% fetal calf serum, 2 mM L-glutamine, 1 mM sodium pyruvate, 1% MEM non-essential amino acids 100×, […]). Immediately before using the medium, tetradecanoyl phorbol acetate (TPA) was added at 200 nM. Cells were seeded in T-25 flasks with 4×10^4 cells/ml×4.5 ml/flask (10-20% confluent) and were grown at 37° C. with 5% CO2. Twenty-four hours later, a compound to be tested (diluted in 0.5 ml media) was added to the media. Forty-eight hours after the addition of drug, both the media and drug were changed. Cells were harvested after an additional 48 or 72 hours (100% confluent). In harvesting the cells, the reagents and cells were kept at 4° C. Briefly, the media was removed from the cells, and one milliliter of media was reserved if needed for the tyrosinase assay. The cells were then rinsed with approximately 500 μl cold 1×phosphate buffered saline (PBS) until the PBS rinse was clear. […] 2 N NaOH in 20% DMSO was used as a blank, and the samples were read at a wavelength of 490 nm. The data were reported as absorbance of melanin per protein calculated for the total sample. […]

Structure (SMILES): C/C=C/C/C=C/CCC(=O)[C@H]1O[C@H]1C(N)=O [cerulenin, [2R,3S]-2,3-epoxy-4-oxo-7,10-trans, trans-dodecanoic acid amide]
- decrease of pigmentation in melan-a melanocytes: 50%
